Measurements published in ChEMBL document CHEMBL1201862, “PubChem BioAssay data set” (2004).
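Where inhibition never reached the appropriate level, the endpoint shown equals the highest concentration tested. Otherwise, values were interpolated linearly from a five-concentration, 48-hour dose response in 96-well plates. The concentration for 50% growth inhibition is given as GI50.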 The source made the active and inactive calls. Rule as the data show it: active = GI50 up to about 1.1 µM and inactive = higher.

How the values were obtained:
Assay in all cases: inhibition of tumour cell growth, NCI panel, 48 h
[1] = tested on: ACHN
[2] = tested on: HCC 2998
[3] = tested on: SF-539
[4] = tested on: OVCAR-3
[5] = tested on: CCRF-CEM
[6] = tested on: RPMI-8226
[7] = tested on: OVCAR-4
[8] = tested on: HCT-15
[9] = tested on: HOP-92
[10] = tested on: UACC-62
[11] = tested on: IGROV-1
[12] = tested on: 786-0
[13] = tested on: LOX IMVI
[14] = tested on: M14
[15] = tested on: SF-295
[16] = tested on: SNB-75
[17] = tested on: RXF 393
[18] = tested on: NCI-H460
[19] = tested on: HT-29

| Compound | GI50 [1] | GI50 [2] | GI50 [3] | GI50 [4] | GI50 [5] | GI50 [6] | GI50 [7] | GI50 [8] [µM] | GI50 [9] | GI50 [10] | GI50 [11] | GI50 [12] | GI50 [13] | GI50 [14] | GI50 [15] | GI50 [16] | GI50 [17] | GI50 [18] | GI50 [19] |
| --- | --- | --- | --- | --- | --- | --- | --- | --- | --- | --- | --- | --- | --- | --- | --- | --- | --- | --- | --- |
| CCOC(=O)/C(=C/c1ccc(C(=O)OC)cc1)N(CC)CC | 60.5 µM (inactive) | 99.5 µM (inactive) | 25.3 µM (inactive) | 22.4 µM (inactive) | 30.6 µM (inactive) | 42.5 µM (inactive) | 48.2 µM (inactive) | 33.3 | 49.9 µM (inactive) | 53.5 µM (inactive) | > 100 µM (inactive) | 41 µM (inactive) | 63.2 µM (inactive) | 40.2 µM (inactive) | > 10 µM (inactive) | – | – | – | – |
| Cc1ccc(-c2cnc(NC3OC(COC(=O)c4ccccc4)C(OC(=O)c4ccccc4)C(OC(=O)c4ccccc4)C3OC(=O)c3ccccc3)s2)cc1 (stereo unspecified) | > 100 µM (inactive) | – | – | > 100 µM (inactive) | – | > 100 µM (inactive) | 68.1 µM (inactive) | > 100 | 20.4 µM (inactive) | 94.6 µM (inactive) | > 100 µM (inactive) | 44.6 µM (inactive) | > 100 µM (inactive) | 40.6 µM (inactive) | > 100 µM (inactive) | > 100 µM (inactive) | > 100 µM (inactive) | > 100 µM (inactive) | > 100 µM (inactive) |
| COC(=O)[C@@]12CC[C@]1(C(=O)OC)C1C(C)=CC(=O)O[C@@]12C (stereo partly specified) | > 100 µM (inactive) | > 100 µM (inactive) | > 100 µM (inactive) | > 100 µM (inactive) | > 100 µM (inactive) | > 100 µM (inactive) | > 100 µM (inactive) | > 100 | > 100 µM (inactive) | > 100 µM (inactive) | > 100 µM (inactive) | > 100 µM (inactive) | > 100 µM (inactive) | > 100 µM (inactive) | > 100 µM (inactive) | > 100 µM (inactive) | > 100 µM (inactive) | > 100 µM (inactive) | > 100 µM (inactive) |
| CSCCC(NCc1c(O)ccc2ccc(=O)oc12)C(=O)O (stereo unspecified) | > 100 µM (inactive) | > 100 µM (inactive) | > 100 µM (inactive) | > 100 µM (inactive) | > 100 µM (inactive) | > 100 µM (inactive) | > 100 µM (inactive) | > 100 | > 100 µM (inactive) | > 100 µM (inactive) | > 100 µM (inactive) | > 100 µM (inactive) | > 100 µM (inactive) | > 100 µM (inactive) | > 100 µM (inactive) | 16.9 µM (inactive) | > 100 µM (inactive) | > 100 µM (inactive) | > 100 µM (inactive) |
| Nc1nc2sc3ccccc3c(=O)n2n1 | > 100 µM (inactive) | > 100 µM (inactive) | > 100 µM (inactive) | > 100 µM (inactive) | > 100 µM (inactive) | > 100 µM (inactive) | > 100 µM (inactive) | > 100 | > 100 µM (inactive) | > 100 µM (inactive) | > 100 µM (inactive) | > 100 µM (inactive) | > 100 µM (inactive) | > 100 µM (inactive) | > 100 µM (inactive) | > 100 µM (inactive) | > 100 µM (inactive) | > 100 µM (inactive) | > 100 µM (inactive) |
| Cc1cc(O)nc(NNC(C#N)c2ccc(N(C)C)cc2)n1 (stereo unspecified) | > 100 µM (inactive) | – | > 100 µM (inactive) | > 100 µM (inactive) | > 100 µM (inactive) | > 100 µM (inactive) | > 100 µM (inactive) | > 100 | > 100 µM (inactive) | > 100 µM (inactive) | > 100 µM (inactive) | > 100 µM (inactive) | > 100 µM (inactive) | > 100 µM (inactive) | > 100 µM (inactive) | > 100 µM (inactive) | > 100 µM (inactive) | > 100 µM (inactive) | > 100 µM (inactive) |
| CC1(C)NC(C(=O)c2ccccc2)=[N+]([O-])C1(O)c1ccccc1 (stereo unspecified) | > 100 µM (inactive) | > 100 µM (inactive) | > 100 µM (inactive) | 95.3 µM (inactive) | > 100 µM (inactive) | > 100 µM (inactive) | > 100 µM (inactive) | 81.3 | > 100 µM (inactive) | > 100 µM (inactive) | > 100 µM (inactive) | > 100 µM (inactive) | > 100 µM (inactive) | > 100 µM (inactive) | > 100 µM (inactive) | > 100 µM (inactive) | > 100 µM (inactive) | > 100 µM (inactive) | > 100 µM (inactive) |
| C=CCOC1OC(CO[Si](C)(C)C(C)(C)C)C(OCc2ccccc2)C(OCc2ccccc2)C1OCc1ccccc1 (stereo unspecified) | 40.4 µM (inactive) | – | – | 37.2 µM (inactive) | > 100 µM (inactive) | > 100 µM (inactive) | 39 µM (inactive) | 88.3 | 38.5 µM (inactive) | 27.2 µM (inactive) | 90.2 µM (inactive) | 10.5 µM (inactive) | 25.9 µM (inactive) | 68.1 µM (inactive) | 22.1 µM (inactive) | 21.5 µM (inactive) | – | 42 µM (inactive) | 79.1 µM (inactive) |
